The source of these data is PMC4254008 (European journal of medicinal chemistry, 2014).

For one data set, the system named is MRSA strain BAA1762. Kind of data set: S. aureus thigh muscle infection model, in vivo efficacy. Details: species or system Swiss Webster mice. The following applies: mouse thigh muscle infection model.
Data set [1] concerns Staphylococcus aureus enoyl-ACP reductase (saFabI). The following applies: cited from earlier work.
For data set [2] the following is noted: orally ingested, humans; cited from earlier work.
The conditions of data set [3]: in vivo; cited from earlier work.
The test system of data set [4] is S. aureus infected thigh muscles. To be noted: in vivo; cited from earlier work.

Consider `CCCCCCc1ccc(Oc2ccccc2C#N)c(O)c1` [PT119], for which the “reduction in the CFU's” value in the data set with MRSA strain BAA1762 is listed as 3 log. The residence time in data set [1] (on saFabI) is given as 750 min. Besides, in data set [1] (saFabI), the Ki (commonly a measure of affinity in units of concentration, obtained from inhibition or displacement) was 0.01 nM.
Take `Oc1cc(Cl)ccc1Oc1ccc(Cl)cc1Cl` [triclosan]: the “absorption from the gastrointestinal tract” value in data set [2] is given as “readily absorbed”.
Take AFN-1252: the AUC/MIC in data set [3] is 20.
[^18F]FDG: in data set [4], the “accumulation in infected thigh relative to healthy thigh” value was 2.3 – 2.6 times.
